Measured values published in patent US8901118B2, “Compounds and methods for kinase modulation, and indications therefor” (Plexxikon Inc., priority 2010, dated 2014).
pIC50: −log10 of the molar value.

How the values were obtained:
TrkA kinase = TrkA kinase (Homo sapiens, UniProt P04629); experiment: TrkA kinase biochemical activity assay (AlphaScreen); conditions: 100 μM ATP; read-out: Biochemical Inhibition IC50 TrkA
Description: In one assay the biochemical activity IC50 values are determined with respect to inhibition of TrkA kinase activity, where inhibition of phosphorylation of a peptide substrate is measured as a function of compound concentration. Compounds to be tested, dissolved in DMSO (1 μL), are added to a white 384-well plate (Costar #3705). Working stocks of TrkA kinase (UBI), biotin-(E4Y)10 substrate (Upstate Biotech, Cat#12-440), and ATP (Sigma, Cat#A-3377) are prepared in 25 mM Hepes pH 7.5, 10 mM MnCl2, 1 mM DTT, 0.01% BSA, and 0.01% Tween-20. All components are added to the 384-well plate for a final concentration of 1 ng/well TrkA, 30 nM biotin-(E4Y)10 and 100 μM ATP in a volume of 20 μL. Each sample is at 5% DMSO. The plate is shaken for 1 minute at 1200 rpm, spun for 1 minute at 1000 rpm, then incubated for 40 minutes at room temperature. Just before use, working stocks of donor and acceptor beads from the AlphaScreen PY20 Detection Kit (PerkinElmer, Cat#676601M) are prepared in 25 mM Hepes pH 7.5, 100 mM EDTA. 0.01% BSA. Donor Beads solution (Streptavidin beads) is added (5 μL) to each well to final bead concentration of 10 μg/mL. The plate is incubated at room temperature for 20 minutes. Acceptor Beads solution (PY20 coated beads) are then added to each well (5 μL) to a final concentration of bead at 10 μg/mL. The plates are incubated at room temperature for 60 minutes. Fluorescence signal is recorded on the Envision reader. Phosphorylated substrate results in binding of the PY20 antibody and association of the donor and acceptor beads such that signal correlates with kinase activity. The signal vs. compound concentration is used to determine the IC50. Similar assays are used for TrkB and Trk C kinase.

[1] = Relative solubility by turbidity in aqueous buffers (pH 1.5, 4.5, 6.8, 7.4); type: physicochemical; conditions: for turbidity threshold (L, M, H) 1.4: pH 1.5 (SGF); for turbidity threshold (L, M, H) 4.5: pH 4.5 (SIF); for turbidity threshold (L, M, H) 6.8: pH 6.8 (SIF); for turbidity threshold (L, M, H) 7.4: pH 7.4 (HEPES)
Description: As an indication of relative solubility, the turbidity of compounds in aqueous solutions is assessed. To assess possible compound properties in different physiological compartments, such as stomach, intestine, and blood, a series of aqueous buffers with varying pH is used. Thus each compound is diluted into four different physiologically relevant buffers and solution turbidity is measured by spectrophotometry.
Compounds are dissolved at a concentration of 25 mM in dimethyl sulfoxide, then serially diluted 1:1 into a 96 well plate, diluting 10 times in pure dimethyl sulfoxide, with the final well of each row a dimethyl sulfoxide blank. In an assay plate, 99 μL of appropriate buffer is added to each well, and 1 μL of each sample dilution is added to the buffer, achieving a range of final total concentrations in aqueous solutions having different pH. The buffers used are Simulated Gastric Fluid (SGF-pH 1.5) 0.5M NaCl, pH 1.5; Simulated Intestinal fluid (SIF-pH 4.5 and pH 6.8) 0.05M NaH2PO4, pH 4.5 and 6.8; and Hepes Buffer (HEPES-pH 7.4) 10 mM HEPES, 150 mM NaCl, pH 7.4. Control compounds pyrene, estriol and propranolol HCl are also assessed. Plates are spun and then mixed for 1 minute, and the absorbance is read using a Tecan Safire II to read wavelengths in the visible range (490, 535, and 650 nm) at four locations per well, reflecting the degree of turbidity present. The average optical density for each wavelength in each well is graphed vs. compound concentration, and the concentration at which the curve crosses a threshold O.D. of 0.01 for each wavelength is reported as the endpoint turbidity assay result. The average of the three wavelengths is used to compare turbidity of compounds.

Sequence of TrkA kinase (P04629 33-796): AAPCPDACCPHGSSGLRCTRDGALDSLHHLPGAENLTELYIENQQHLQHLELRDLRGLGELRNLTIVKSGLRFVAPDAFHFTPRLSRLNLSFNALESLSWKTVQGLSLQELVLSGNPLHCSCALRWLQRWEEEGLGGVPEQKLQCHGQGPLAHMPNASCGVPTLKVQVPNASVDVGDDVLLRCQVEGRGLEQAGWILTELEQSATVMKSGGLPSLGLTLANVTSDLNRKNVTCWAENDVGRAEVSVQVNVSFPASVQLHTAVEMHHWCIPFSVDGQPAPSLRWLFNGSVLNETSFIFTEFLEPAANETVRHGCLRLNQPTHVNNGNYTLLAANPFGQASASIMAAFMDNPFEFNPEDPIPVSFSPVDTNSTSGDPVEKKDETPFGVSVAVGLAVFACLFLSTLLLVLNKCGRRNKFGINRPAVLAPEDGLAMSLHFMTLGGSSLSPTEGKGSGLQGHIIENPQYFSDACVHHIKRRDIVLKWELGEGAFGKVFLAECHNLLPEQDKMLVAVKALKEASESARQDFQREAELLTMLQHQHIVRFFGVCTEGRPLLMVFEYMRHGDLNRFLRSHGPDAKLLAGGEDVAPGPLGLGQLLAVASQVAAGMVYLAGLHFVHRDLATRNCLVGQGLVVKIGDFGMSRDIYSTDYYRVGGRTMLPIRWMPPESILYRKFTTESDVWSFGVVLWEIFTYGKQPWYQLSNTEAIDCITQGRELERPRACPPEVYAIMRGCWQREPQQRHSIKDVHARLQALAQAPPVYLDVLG

| Structure (SMILES) | pIC50 (TrkA kinase) | turbidity threshold (L, M, H) 1.4 [1] | turbidity threshold (L, M, H) 4.5 [1] | turbidity threshold (L, M, H) 6.8 [1] | turbidity threshold (L, M, H) 7.4 [1] |
| --- | --- | --- | --- | --- | --- |
| COc1ccc(Nc2ccc(C(=O)c3c[nH]c4ncnc(NCC5CCCO5)c34)c(F)n2)cn1 (stereo not shown) [Compound P-4073, [2-fluoro-6-[(6-methoxy-3-pyridyl)amino]-3-pyridyl]-[4-(tetrahydrofuran-2-ylmethylamino)-7H-pyrrolo[2,3-d]pyrimidin-5-yl]methanone] | > 8.00 | M (moderate solubility if the threshold concentration is 31.3 μM to 250 μM) | L (low solubility if the threshold concentration is <31.3 μM) | L (low solubility if the threshold concentration is <31.3 μM) | L (low solubility if the threshold concentration is <31.3 μM) |
| Cc1ccc(Nc2ccc(C(=O)c3c[nH]c4ncnc(NC5CCCCC5)c34)c(F)n2)cn1 [Compound P-4111, [4-(cyclohexylamino)-7H-pyrrolo[2,3-d]pyrimidin-5-yl]-[2-fluoro-6-[(6-methyl-3-pyridyl)amino]-3-pyridyl]methanone] | > 7.00 | H (high solubility if the threshold concentration is >250 μm) | L (low solubility if the threshold concentration is <31.3 μM) | L (low solubility if the threshold concentration is <31.3 μM) | L (low solubility if the threshold concentration is <31.3 μM) |
| Cc1cnc2[nH]cc(Cc3cnc(Nc4ccc(F)cc4)nc3)c2c1 [Compound P-3010, (4-Fluoro-phenyl)-[5-(5-methyl-1H-pyrrolo[2,3-b]pyridin-3-ylmethyl)-pyrimidin-2-yl]-amine] | > 6.00 | H (high solubility if the threshold concentration is >250 μm) | L (low solubility if the threshold concentration is <31.3 μM) | L (low solubility if the threshold concentration is <31.3 μM) | M (moderate solubility if the threshold concentration is 31.3 μM to 250 μM) |
| COc1cncc(Nc2ccc(C(=O)c3c[nH]c4ncnc(NC5CC5)c34)c(F)n2)c1 [Compound P-4107, [4-(cyclopropylamino)-7H-pyrrolo[2,3-d]pyrimidin-5-yl]-[2-fluoro-6-[(5-methoxy-3-pyridyl)amino]-3-pyridyl]methanone] | > 8.00 | M (moderate solubility if the threshold concentration is 31.3 μM to 250 μM) | M (moderate solubility if the threshold concentration is 31.3 μM to 250 μM) | M (moderate solubility if the threshold concentration is 31.3 μM to 250 μM) | M (moderate solubility if the threshold concentration is 31.3 μM to 250 μM) |
| COc1ccc(Nc2ccc(C(=O)c3c[nH]c4ncnc(N5CCOCC5)c34)c(F)n2)cn1 [Compound P-4070, [2-fluoro-6-[(6-methoxy-3-pyridyl)amino]-3-pyridyl]-(4-morpholino-7H-pyrrolo[2,3-d]pyrimidin-5-yl)methanone] | < 6.00 | H (high solubility if the threshold concentration is >250 μm) | M (moderate solubility if the threshold concentration is 31.3 μM to 250 μM) | M (moderate solubility if the threshold concentration is 31.3 μM to 250 μM) | M (moderate solubility if the threshold concentration is 31.3 μM to 250 μM) |
| CCCNc1ncnc2[nH]cc(C(=O)c3ccc(Nc4ccc(OC)nc4)nc3F)c12 [Compound P-4068, [2-fluoro-6-[(6-methoxy-3-pyridyl)amino]-3-pyridyl]-[4-(propylamino)-7H-pyrrolo[2,3-d]pyrimidin-5-yl]methanone] | > 8.00 | H (high solubility if the threshold concentration is >250 μm) | M (moderate solubility if the threshold concentration is 31.3 μM to 250 μM) | M (moderate solubility if the threshold concentration is 31.3 μM to 250 μM) | M (moderate solubility if the threshold concentration is 31.3 μM to 250 μM) |
| COc1cncc(Nc2ccc(C(=O)c3c[nH]c4ncnc(NC5CCCCC5)c34)c(F)n2)c1 [Compound P-4104, [4-(cyclohexylamino)-7H-pyrrolo[2,3-d]pyrimidin-5-yl]-[2-fluoro-6-[(5-methoxy-3-pyridyl)amino]-3-pyridyl]methanone] | > 7.00 | M (moderate solubility if the threshold concentration is 31.3 μM to 250 μM) | L (low solubility if the threshold concentration is <31.3 μM) | L (low solubility if the threshold concentration is <31.3 μM) | L (low solubility if the threshold concentration is <31.3 μM) |

Now from value to compound, other results behind:

| pIC50 (TrkA kinase) | Structure (SMILES) | turbidity threshold (L, M, H) 1.4 [1] | turbidity threshold (L, M, H) 4.5 [1] | turbidity threshold (L, M, H) 6.8 [1] | turbidity threshold (L, M, H) 7.4 [1] |
| --- | --- | --- | --- | --- | --- |
| > 6.00 | CNc1ncnc2[nH]cc(C(=O)c3ccc(NC4CCC(F)(F)CC4)nc3Cl)c12 [Compound P-4058, [2-chloro-6-[(4,4-difluorocyclohexyl)amino]-3-pyridyl]-[4-(methylamino)-7H-pyrrolo[2,3-d]pyrimidin-5-yl]methanone] | M (moderate solubility if the threshold concentration is 31.3 μM to 250 μM) | L (low solubility if the threshold concentration is <31.3 μM) | L (low solubility if the threshold concentration is <31.3 μM) | L (low solubility if the threshold concentration is <31.3 μM) |
| > 7.00 | CNc1ncnc2[nH]cc(C(=O)c3ccc(NC4CCC(F)(F)CC4)nc3)c12 [Compound P-4089, [6-[(4,4-difluorocyclohexyl)amino]-3-pyridyl]-[4-(methylamino)-7H-pyrrolo[2,3-d]pyrimidin-5-yl]methanone] | H (high solubility if the threshold concentration is >250 μm) | M (moderate solubility if the threshold concentration is 31.3 μM to 250 μM) | M (moderate solubility if the threshold concentration is 31.3 μM to 250 μM) | M (moderate solubility if the threshold concentration is 31.3 μM to 250 μM) |
| > 7.00 | CCc1ccc(Nc2ccc(C(=O)c3c[nH]c4ncnc(NC5CCCC5)c34)c(F)n2)cn1 [Compound P-4099, [4-(cyclopentylamino)-7H-pyrrolo[2,3-d]pyrimidin-5-yl]-[6-[(6-ethyl-3-pyridyl)amino]-2-fluoro-3-pyridyl]methanone] | H (high solubility if the threshold concentration is >250 μm) | L (low solubility if the threshold concentration is <31.3 μM) | L (low solubility if the threshold concentration is <31.3 μM) | L (low solubility if the threshold concentration is <31.3 μM) |
| > 7.00 | Fc1cc(Cc2c[nH]c3ncnc(NC4CC4)c23)cnc1NC1CCC(F)(F)CC1 [Compound P-4127, N-cyclopropyl-5-[[6-[(4,4-difluorocyclohexyl)amino]-5-fluoro-3-pyridyl]methyl]-7H-pyrrolo[2,3-d]pyrimidin-4-amine] | H (high solubility if the threshold concentration is >250 μm) | M (moderate solubility if the threshold concentration is 31.3 μM to 250 μM) | M (moderate solubility if the threshold concentration is 31.3 μM to 250 μM) | M (moderate solubility if the threshold concentration is 31.3 μM to 250 μM) |
